Laboratory results as given in publication PMC9090415, “Discovery of small molecule inhibitors of Plasmodium falciparum apicoplast DNA polymerase” (Journal of Enzyme Inhibition and Medicinal Chemistry, 2022).

Target: P. falciparum apicoplast DNA polymerase (Pf-apPOL) (Plasmodium falciparum, UniProt Q8ILY1)
Assay: Fluorescence-based high-throughput DNA polymerase assay (molecular beacon), primary screen and dose-response
Type: biochemical
Conditions: for DNA Pol: 90 min, 10 µM; for % inhibition apPOL 180' 2.5 / % inhibition apPOL 180' 5 / % inhibition apPOL 180' 10 / % inhibition apPOL 180' 20 / % inhibition apPOL 180' 40 / % inhibition apPOL 180' 80: read at 180'
Method in brief: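 Single-point screening used 10 µM compound with 20 nM polymerase, 20 nM hairpin substrate and 6 µM dNTPs for 90 min at 25 °C. Confirmatory titrations (2.5–80 µM) followed fluorescence at three times, and IC50 was derived from a fit including a cooperativity term n.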

[1] = first dose-response, concentration 2.5
[2] = first dose-response, concentration 10
[3] = first dose-response, concentration 20

Sequence of P. falciparum apicoplast DNA polymerase (Pf-apPOL) (Q8ILY1 entry or part of it): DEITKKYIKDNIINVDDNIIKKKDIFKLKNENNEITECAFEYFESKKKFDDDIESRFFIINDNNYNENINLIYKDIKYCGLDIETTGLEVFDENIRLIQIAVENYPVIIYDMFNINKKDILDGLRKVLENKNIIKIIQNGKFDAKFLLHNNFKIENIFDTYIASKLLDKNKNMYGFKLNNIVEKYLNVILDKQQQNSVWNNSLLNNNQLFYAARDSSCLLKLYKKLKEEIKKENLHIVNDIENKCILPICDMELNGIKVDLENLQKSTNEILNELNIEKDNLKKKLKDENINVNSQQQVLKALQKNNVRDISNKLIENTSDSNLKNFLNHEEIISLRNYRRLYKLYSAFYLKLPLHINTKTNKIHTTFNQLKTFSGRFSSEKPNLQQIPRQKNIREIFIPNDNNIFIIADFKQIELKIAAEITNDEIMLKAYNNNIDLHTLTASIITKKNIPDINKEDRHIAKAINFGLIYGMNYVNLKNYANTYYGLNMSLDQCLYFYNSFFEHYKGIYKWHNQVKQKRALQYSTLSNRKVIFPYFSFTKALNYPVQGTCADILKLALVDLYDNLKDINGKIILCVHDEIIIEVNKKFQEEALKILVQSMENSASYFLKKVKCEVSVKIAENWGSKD

SMILES: COc1ccc(C2CC(c3ccc(Cl)cc3Cl)Nc3nc(N)nn32)cc1OC (stereo not drawn) [Molecule 43, COc1cc(ccc1OC)C1CC(Nc2n1nc(n2)N)c1ccc(cc1Cl)Cl]
- DNA Pol (186 hits, DNA Pol (screen value), unit not given): 50
- DNA Pol ('DNA Pol' (screen value), unit not given): 50
- % inhibition Apo pol 10' 2.5 (DRC-1, read at 10', concentration 2.5): 35%
- % inhibition Apo pol 10' 5 (DRC-1, read at 10', concentration 5): 39%
- % inhibition Apo pol 10' 10 (DRC-1, read at 10', concentration 10): 50%
- % inhibition Apo pol 10' 20 (DRC-1, read at 10', concentration 20): 56%
- % inhibition Apo pol 10' 40 (DRC-1, read at 10', concentration 40): 63%
- % inhibition Apo pol 10' 80 (DRC-1, read at 10', concentration 80): 71%
- % inhibition Apol 90' 2.5 (DRC-1, read at 90', concentration 2.5): 28%
- % inhibition Apol 90' 5 (DRC-1, read at 90', concentration 5): 32%
- % inhibition Apol 90' 10 (DRC-1, read at 90', concentration 10): 43%
- % inhibition Apol 90' 20 (DRC-1, read at 90', concentration 20): 51%
- % inhibition Apol 90' 40 (DRC-1, read at 90', concentration 40): 58%
- % inhibition Apol 90' 80 (DRC-1, read at 90', concentration 80): 67%
- % inhibition apPOL 180' 2.5 (DRC-1, concentration 2.5): 22%
- % inhibition apPOL 180' 5 (DRC-1, concentration 5): 25%
- % inhibition apPOL 180' 10 (DRC-1, concentration 10): 35%
- % inhibition apPOL 180' 20 (DRC-1, concentration 20): 43%
- % inhibition apPOL 180' 40 (DRC-1, concentration 40): 52%
- % inhibition apPOL 180' 80 (DRC-1, concentration 80): 62%
- % inhibition Apo pol 5' (DRC-2, concentration 5): 22%
- % inhibition Apo pol 5' (DRC-2, concentration 10): 28%
- % inhibition Apo pol 5' (DRC-2, concentration 20): 30%
- % inhibition Apo pol 5' (DRC-2, concentration 40): 39%
- % inhibition Apol 40' (DRC-2, concentration 2.5): 26%
- % inhibition Apol 40' (DRC-2, concentration 5): 29%
- % inhibition Apol 40' (DRC-2, concentration 20): 42%
- % inhibition Apol 40' (DRC-2, concentration 80): 51%
- % inhibition ApPOL 90' (DRC-2, concentration 2.5): 26%
- % inhibition ApPOL 90' (DRC-2, concentration 5): 29%
- % inhibition ApPOL 90' (DRC-2, concentration 20): 42%
- % inhibition ApPOL 90' (DRC-2, concentration 40): 50%
- % inhibition ApPOL 90' (DRC-2, concentration 80): 52%
- % inhibition apPOL 180' (DRC-2, concentration 10): 30%
- % inhibition apPOL 180' (DRC-2, concentration 20): 35%
- % inhibition apPOL 180' (DRC-2, concentration 40): 43%
- % inhibition Apo pol 5' 2.5 (DRC-2, read at 5', concentration 2.5): 23%
- % inhibition Apo pol 5' 5 (DRC-2, read at 5', concentration 5): 22%
- % inhibition Apo pol 5' 10 (DRC-2, read at 5', concentration 10): 28%
- % inhibition Apo pol 5' 20 (DRC-2, read at 5', concentration 20): 30%
- % inhibition Apo pol 5' 40 (DRC-2, read at 5', concentration 40): 39%
- % inhibition Apo pol 5' 80 (DRC-2, read at 5', concentration 80): 38%
- % inhibition Apol 40' 2.5 (DRC-2, read at 40', concentration 2.5): 26%
- % inhibition Apol 40' 5 (DRC-2, read at 40', concentration 5): 29%
- % inhibition Apol 40' 10 (DRC-2, read at 40', concentration 10): 36%
- % inhibition Apol 40' 20 (DRC-2, read at 40', concentration 20): 42%
- % inhibition Apol 40' 40 (DRC-2, read at 40', concentration 40): 49%
- % inhibition Apol 40' 80 (DRC-2, read at 40', concentration 80): 51%
- % inhibition ApPOL 90' 2.5 (DRC-2, read at 90', concentration 2.5): 26%
- % inhibition ApPOL 90' 5 (DRC-2, read at 90', concentration 5): 29%
- % inhibition ApPOL 90' 10 (DRC-2, read at 90', concentration 10): 37%
- % inhibition ApPOL 90' 20 (DRC-2, read at 90', concentration 20): 42%
- % inhibition ApPOL 90' 40 (DRC-2, read at 90', concentration 40): 50%
- % inhibition ApPOL 90' 80 (DRC-2, read at 90', concentration 80): 52%
- % inhibition apPOL 180' 2.5 (DRC-2, concentration 2.5): 18%
- % inhibition apPOL 180' 5 (DRC-2, concentration 5): 21%
- % inhibition apPOL 180' 10 (DRC-2, concentration 10): 30%
- % inhibition apPOL 180' 20 (DRC-2, concentration 20): 35%
- % inhibition apPOL 180' 40 (DRC-2, concentration 40): 43%
- % inhibition apPOL 180' 80 (DRC-2, concentration 80): 46%
- % inhibition Apo pol 10' [1]: 35%
- % inhibition Apo pol 10' (first dose-response, concentration 5): 39%
- % inhibition Apo pol 10' [2]: 50%
- % inhibition Apol 90' [1]: 28%
- % inhibition Apol 90' [2]: 43%
- % inhibition Apol 90' [3]: 51%
- % inhibition apPOL 180' [1]: 22%
- % inhibition apPOL 180' [2]: 35%
- % inhibition apPOL 180' [3]: 43%
- % inhibition apPOL 180' (first dose-response, concentration 40): 52%

SMILES: O=c1[nH]c2ccc([N+](=O)[O-])cc2c(-c2ccccc2)c1Sc1nc2ccccc2o1 [KU0067471]
- DNA Pol ('DNA Pol' of the 186 hits list (primary screen value)): 28
- DNA Pol (DNA Pol (primary screen value)): 28
- % inhibition Apo pol 10' (DRC-1, concentration 2.5): 11.1433%
- % inhibition Apo pol 10' (DRC-1, concentration 5): 11.3784%
- % inhibition Apo pol 10' (DRC-1, concentration 10): 23.2925%
- % inhibition Apo pol 10' (DRC-1, concentration 20): 44.3997%
- % inhibition Apo pol 10' (DRC-1, concentration 40): 71.988%
- % inhibition Apo pol 10' (DRC-1, concentration 80): 85.2168%
- % inhibition Apol 90' (DRC-1, concentration 2.5): 8.412%
- % inhibition Apol 90' (DRC-1, concentration 5): 5.979%
- % inhibition Apol 90' (DRC-1, concentration 10): 13.3902%
- % inhibition Apol 90' (DRC-1, concentration 20): 30.6503%
- % inhibition Apol 90' (DRC-1, concentration 40): 58.6016%
- % inhibition Apol 90' (DRC-1, concentration 80): 77.507%
- % inhibition apPOL 180' (DRC-1, concentration 2.5): 7.341%
- % inhibition apPOL 180' (DRC-1, concentration 5): 3.743%
- % inhibition apPOL 180' (DRC-1, concentration 10): 8.363%
- % inhibition apPOL 180' (DRC-1, concentration 20): 19.4729%
- % inhibition apPOL 180' (DRC-1, concentration 40): 44.0566%
- % inhibition apPOL 180' (DRC-1, concentration 80): 66.9195%
- % inhibition Apo pol 5' (DRC-2, concentration 2.5): 9%
- % inhibition Apo pol 5' (DRC-2, concentration 5): 12%
- % inhibition Apo pol 5' (DRC-2, concentration 10): 26%
- % inhibition Apo pol 5' (DRC-2, concentration 20): 42%
- % inhibition Apo pol 5' (DRC-2, concentration 40): 59%
- % inhibition Apo pol 5' (DRC-2, concentration 80): 60%
- % inhibition Apol 40' (DRC-2, concentration 2.5): 7%
- % inhibition Apol 40' (DRC-2, concentration 5): 9%
- % inhibition Apol 40' (DRC-2, concentration 10): 24%
- % inhibition Apol 40' (DRC-2, concentration 20): 43%
- % inhibition Apol 40' (DRC-2, concentration 40): 65%
- % inhibition Apol 40' (DRC-2, concentration 80): 72%
- % inhibition ApPOL 90' (DRC-2, concentration 2.5): 5%
- % inhibition ApPOL 90' (DRC-2, concentration 5): 7%
- % inhibition ApPOL 90' (DRC-2, concentration 10): 20%
- % inhibition ApPOL 90' (DRC-2, concentration 20): 40%
- % inhibition ApPOL 90' (DRC-2, concentration 40): 65%
- % inhibition ApPOL 90' (DRC-2, concentration 80): 73%
- % inhibition apPOL 180' (DRC-2, concentration 2.5): -0.297%
- % inhibition apPOL 180' (DRC-2, concentration 5): -0.499%
- % inhibition apPOL 180' (DRC-2, concentration 10): 10%
- % inhibition apPOL 180' (DRC-2, concentration 20): 26%
- % inhibition apPOL 180' (DRC-2, concentration 40): 57%
- % inhibition apPOL 180' (DRC-2, concentration 80): 72%
